Common to all, as to experiment: NCI tumour cell line growth inhibition, 48 h
The subject of assay [1] is MDA-MB-435.
The subject of assay [2] is A498.
For assay [3], the system named is COLO 205.
The subject of assay [4] is UACC-62.
Assay [5] concerns NCI/ADR-RES.
Assay [6] concerns SK-MEL-5.
For assay [7], the system named is SNB-19.
For assay [8], the system named is KM12.
The test system of assay [9] is MOLT-4.
In assay [10] the test system is HOP-92.
Assay [11] has as its system SR.
The test system of assay [12] is HCT-15.
Assay [13] deals with NCI-H226.
The test system of assay [14] is Malme-3M.
Assay [15] has as its system IGROV-1.
Assay [16] relates to HT-29.
Assay [17] relates to DU-145.
For assay [18], the system named is HCT-116.
The test system of assay [19] is RPMI-8226.
Assay [20] deals with SF-268.

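Step 1: Grow cells in 96-well plates. Step 2: Expose to compound for 48 hours at 5 concentrations. Step 3: Interpolate endpoints linearly; if unreached, use highest concentration. GI50: concentration for 50% inhibition of growth.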 The source made the active and inactive calls. No stated cut-off is given here; in the data, active = GI50 up to about 1.1 µM and inactive = higher.

In the case of `COc1cc2c(cc1OC)CN1CCc3ccccc3CC1C2` (stereo not given), the GI50 is 86.5 µM (inactive) in [1]; 43.3 µM (inactive) in [2]; 25.1 µM (inactive) in [3]; 23.6 µM (inactive) in assay [4]; 54.7 µM (inactive) in assay [5]; 27.1 µM (inactive) in assay [6]. Moreover, the GI50 in assay [7] is 52 µM (inactive); in assay [8], 33.1 µM (inactive); in assay [9], 28.8 µM (inactive); in [10] it was 12.5 µM (inactive); in assay [11], 0.208 µM (active); in assay [12] it was 39.4 µM. The GI50 was 42.1 µM (inactive) in [13]; 25.8 µM (inactive) in assay [14]; 17.5 µM (inactive) in assay [15]; 12.6 µM (inactive) in assay [16]; 37.6 µM (inactive) in assay [17]; 23.8 µM (inactive) in assay [18].
As for `Cc1cc(C)c(C)c(-n2[nH]c(=O)n(C)c2=O)c1C`, the GI50 in assay [1], in [2], in [3], in assay [4], in [5] and in [6] was > 100 µM (inactive) each time. The GI50 is > 100 µM (inactive) in assay [7]; > 100 µM (inactive) in assay [8]; > 100 µM (inactive) in assay [9]; > 100 µM (inactive) in assay [10]; > 100 µM (inactive) in [11]; more than 100 µM in assay [12]. Moreover, the GI50 in assay [13], in assay [19], in assay [20], in assay [15], in assay [16] and in assay [17] was > 100 µM (inactive) in each case. In [18], the GI50 is > 100 µM (inactive).
Turning to `O=C(O)CN1CCNCCNCC1`, the GI50 in assay [1], in assay [2], in assay [3], in [4], in [5] and in assay [6] was > 100 µM (inactive) throughout. Moreover, the GI50 in [7] is > 100 µM (inactive); in assay [8], 59.6 µM (inactive); in assay [9], > 100 µM (inactive); in assay [10], > 100 µM (inactive); in [11] it was > 100 µM (inactive); in [12] it was more than 100 µM. Also, the GI50 in [13], in assay [19], in [15], in assay [16], in assay [17] and in assay [18] was > 100 µM (inactive) throughout.
For `O=C1O[C@H](COC(=O)c2ccccc2)[C@@H](OC(=O)c2ccccc2)C=C1OC(=O)c1ccccc1`, the GI50 in assay [1] was 25 µM (inactive); in [2], 55.7 µM (inactive); in assay [3], 19.6 µM (inactive); in assay [4] it was 20.7 µM (inactive); in [5] it was 18.9 µM (inactive); in [6] it was 19 µM (inactive). Also, the GI50 in [7] is 18.1 µM (inactive); in assay [8] it was 33.7 µM (inactive); in assay [9], 23.1 µM (inactive); in assay [10] it was 21.8 µM (inactive); in assay [11], 18.5 µM (inactive); in [12] it was 17.7 µM. Also, the GI50 in assay [13] was 21.5 µM (inactive); in [19] it was 29.6 µM (inactive); in assay [20] it was 18.3 µM (inactive); in assay [15] it was 21.5 µM (inactive); in assay [17] it was 36.6 µM (inactive); in assay [18], 17.3 µM (inactive).
With `C#CCOCC12C=CC(O1)C1C(=O)OCC12` (stereo not given), the GI50 in [1], in assay [2], in assay [3], in [4], in assay [5] and in [6] was > 100 µM (inactive) throughout. Besides, the GI50 in assay [7] was > 100 µM (inactive); in assay [8] it was > 100 µM (inactive); in assay [9] it was > 100 µM (inactive); in assay [11], > 100 µM (inactive); in [12], more than 100 µM; in [13] it was > 100 µM (inactive). The GI50 in assay [19], in assay [20], in assay [14], in assay [15], in [16] and in [17] was > 100 µM (inactive) throughout. Besides, the GI50 in assay [18] was > 100 µM (inactive).
On to `CC1(C)OC2C(=O)C=C(COCc3ccccc3)C2O1` (stereo not given), for which the GI50 in assay [1] was 25.2 µM (inactive); in assay [2] it was 56.6 µM (inactive); in assay [3] it was 20.5 µM (inactive); in assay [4], 12.3 µM (inactive); in assay [5], 37.2 µM (inactive); in assay [6], 13.1 µM (inactive). Moreover, the GI50 in [7] is 47.2 µM (inactive); in assay [8], 21.5 µM (inactive); in assay [9], 28.4 µM (inactive); in assay [11], 35.1 µM (inactive); in [12], 35.2 µM; in assay [13], 22.9 µM (inactive). Further, the GI50 was 24.8 µM (inactive) in assay [19]; 25.4 µM (inactive) in [20]; 19 µM (inactive) in assay [14]; 19.8 µM (inactive) in assay [15]; 33 µM (inactive) in assay [16]; 44.6 µM (inactive) in assay [17]. Also, the GI50 in assay [18] is 23.6 µM (inactive).
For `O=C(CC(C(=O)c1cccs1)c1ccsc1)c1ccc(Cl)cc1` (stereo not given), the GI50 is > 100 µM (inactive) in assay [1]; > 100 µM (inactive) in assay [2]; > 100 µM (inactive) in [3]; > 100 µM (inactive) in assay [4]; 83.8 µM (inactive) in assay [5]; > 100 µM (inactive) in [6]. Further, the GI50 in [7] was > 100 µM (inactive); in assay [8], > 100 µM (inactive); in [9] it was > 100 µM (inactive); in assay [11], > 100 µM (inactive); in assay [12] it was more than 100 µM; in assay [13], 81.8 µM (inactive). Also, the GI50 in assay [19], in assay [20], in assay [14], in assay [15], in assay [16] and in [17] was > 100 µM (inactive) throughout. For the same compound, the GI50 in assay [18] was > 100 µM (inactive).
For `NC(=O)c1nnc2c(F)cccc2c1N`, the GI50 was 77.3 µM (inactive) in assay [1]; > 100 µM (inactive) in assay [2]; 73.3 µM (inactive) in [3]; 73.8 µM (inactive) in [4]; > 100 µM (inactive) in assay [5]; > 100 µM (inactive) in assay [6]. Besides, the GI50 in assay [7] is > 100 µM (inactive); in assay [8], > 100 µM (inactive); in [9], > 100 µM (inactive); in assay [11], > 100 µM (inactive); in assay [12], 92 µM; in assay [13], 46.6 µM (inactive). Besides, the GI50 in [19], in assay [20], in assay [14], in [15], in [16] and in [17] was > 100 µM (inactive) throughout. Also, in assay [18], the GI50 is 64.4 µM (inactive).
Turning to `CCCCCCCCC/C=C1/CC(CO)(COC(=O)C2CCCCC2)OC1=O` (stereo not given), the GI50 in assay [1] is 98.4 µM (inactive); in assay [2], > 100 µM (inactive); in assay [3], 34 µM (inactive); in [4] it was > 100 µM (inactive); in assay [5] it was > 100 µM (inactive); in assay [6], 43.2 µM (inactive). Besides, the GI50 in assay [7] was > 100 µM (inactive); in assay [8] it was > 100 µM (inactive); in assay [9] it was > 100 µM (inactive); in [10], > 100 µM (inactive); in assay [11], > 100 µM (inactive); in assay [12] it was more than 100 µM. For the same compound, the GI50 in assay [13] was > 100 µM (inactive); in [20], > 100 µM (inactive); in assay [14], 43.3 µM (inactive); in assay [15], > 100 µM (inactive); in assay [16], > 100 µM (inactive); in assay [17] it was > 100 µM (inactive). In [18], the GI50 was > 100 µM (inactive).
On to `O=C(O)Cc1cc(O)c(CC(=O)O)cc1O`, for which the GI50 in assay [1], in assay [2], in [4], in [5], in [6] and in assay [7] was > 100 µM (inactive) each time. Further, the GI50 in assay [8] is > 100 µM (inactive); in assay [9], > 100 µM (inactive); in [10], > 100 µM (inactive); in assay [11], > 100 µM (inactive); in assay [12], more than 100 µM; in assay [13], > 100 µM (inactive). For the same compound, the GI50 in assay [20], in assay [14], in assay [15], in assay [16], in assay [17] and in [18] was > 100 µM (inactive) in each case.
Regarding `CC(=O)O[C@H]1C(=O)[C@@]2(C)[C@H]([C@H](OC(=O)c3ccccc3)[C@]3(O)C[C@H](OC(=O)[C@H](O)[C@@H](NC(=O)OC(C)(C)C)c4ccco4)C(C)=C1C3(C)C)[C@]1(OC(C)=O)CO[C@@H]1C[C@@H]2O`, the GI50 in assay [1] was < 0.005 µM (active); in [2], 2.47 µM (inactive); in [3], < 0.005 µM (active); in assay [4], 0.0129 µM (active); in assay [5], 0.0185 µM (active); in assay [6], < 0.005 µM (active). The GI50 in assay [7] is 0.00971 µM (active); in assay [8], < 0.005 µM (active); in assay [9] it was 0.00667 µM (active); in assay [10], 7.23 µM (inactive); in assay [11], 0.053 µM (active); in assay [12] it was 0.00948 µM. In addition, the GI50 in [19] is < 0.005 µM (active); in assay [20] it was < 0.005 µM (active); in assay [14], 6.61 µM (inactive); in assay [15], 0.00682 µM (active); in [16] it was < 0.005 µM (active); in assay [17], < 0.005 µM (active). For the same compound, the GI50 in assay [18] was < 0.005 µM (active).
